The values that follow come from article PMC5725665, “Discovery of a Highly Selective Cell‐Active Inhibitor of the Histone Lysine Demethylases KDM2/7” (Angewandte Chemie (International Ed. in English), 2017).

What all share (test): biochemical
The target of one experiment is JARID1A (KDM5A) (Homo sapiens, UniProt P29375). On the set-up: AlphaScreen histone demethylase activity assay. The source says: (§1) A base‐mediated 5‐endo‐trig cyclization of a C‐2‐substituted aromatic imine afforded the racemic indoline core with two adjacent stereocenters. Subsequent acylation of the indoline ring system conferred stability towards oxidation and provided a handle for modulating polarity. Finally, metal‐catalysed cross‐coupling of the aryl bromide provided access to a variety of linkers between the indoline core and pyrrolidine capping group. In total, 45 racemic compounds were synthesized, and IC50 values for inhibition of KDM2A were determined using two orthogonal enzyme activity assays: AlphaScreen25 and RapidFire MS26 (see Section S3.1 in the Supporting Information for complete inhibition data). Key structure–activity relationships are summarized below (Scheme 1 B, compounds 2–12). […] In immunofluorescence assays using HeLa cells ectopically expressing catalytically active KDM2A, a dose‐dependent increase in H3K36me2 staining was observed upon incubation with (S,S)‐6, reflecting augmented cellular H3K36me2 levels (Figure 2 A and Section S3.3). […] To profile its selectivity, (S,S)‐6 was tested for inhibitory activity against a panel of KDMs, methyllysine binding motifs, and epigenetic enzymes.

Experiment [1] concerns the target T1, JMJD2A (KDM4A) (Homo sapiens, UniProt O75164).
T1 sequence (O75164 1-1064): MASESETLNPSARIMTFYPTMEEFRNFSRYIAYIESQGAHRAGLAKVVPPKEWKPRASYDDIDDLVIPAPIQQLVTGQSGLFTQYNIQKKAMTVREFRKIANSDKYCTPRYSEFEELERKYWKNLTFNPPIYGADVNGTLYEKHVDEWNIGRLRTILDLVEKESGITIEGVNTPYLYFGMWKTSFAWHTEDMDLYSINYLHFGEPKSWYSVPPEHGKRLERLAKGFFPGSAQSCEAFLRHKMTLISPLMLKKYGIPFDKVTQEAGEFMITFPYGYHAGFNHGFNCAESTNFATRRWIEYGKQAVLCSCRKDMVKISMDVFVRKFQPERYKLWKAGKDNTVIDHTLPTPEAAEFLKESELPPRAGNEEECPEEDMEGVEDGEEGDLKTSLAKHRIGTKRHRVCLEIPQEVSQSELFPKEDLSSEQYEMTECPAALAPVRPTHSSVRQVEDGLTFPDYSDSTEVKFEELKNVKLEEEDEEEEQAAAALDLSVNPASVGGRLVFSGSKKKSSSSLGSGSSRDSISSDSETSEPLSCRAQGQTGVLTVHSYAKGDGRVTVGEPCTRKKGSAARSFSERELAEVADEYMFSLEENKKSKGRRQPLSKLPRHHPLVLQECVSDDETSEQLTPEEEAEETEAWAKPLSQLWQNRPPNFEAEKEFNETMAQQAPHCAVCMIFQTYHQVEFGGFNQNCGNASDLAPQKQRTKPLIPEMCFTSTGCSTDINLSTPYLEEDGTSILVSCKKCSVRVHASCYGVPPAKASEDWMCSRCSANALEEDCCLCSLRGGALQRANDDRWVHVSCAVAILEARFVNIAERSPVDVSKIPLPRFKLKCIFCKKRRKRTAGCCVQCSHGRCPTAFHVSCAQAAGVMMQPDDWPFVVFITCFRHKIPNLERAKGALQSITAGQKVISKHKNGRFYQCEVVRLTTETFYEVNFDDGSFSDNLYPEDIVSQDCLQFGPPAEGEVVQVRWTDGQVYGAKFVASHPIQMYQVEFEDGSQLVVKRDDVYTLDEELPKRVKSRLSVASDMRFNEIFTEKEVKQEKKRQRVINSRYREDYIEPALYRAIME
The arrangement: AlphaScreen histone demethylase activity assay. As to conditions: read-out: KDM4A % Inhib. (18.75 uM).

The target in experiment [2] is T1, JMJD2A (KDM4A). On the set-up: AlphaScreen histone demethylase activity assay. The note with it: for IC50: read-out: KDM4A pIC50 (converted); for KDM4A pIC50: inhibitor.
Description: as §1

Another experiment deals with T2, KDM2A (Homo sapiens, UniProt Q9Y2K7).
T2 construct: isolated enzyme
T2 sequence (Q9Y2K7 1-517 limits assumed): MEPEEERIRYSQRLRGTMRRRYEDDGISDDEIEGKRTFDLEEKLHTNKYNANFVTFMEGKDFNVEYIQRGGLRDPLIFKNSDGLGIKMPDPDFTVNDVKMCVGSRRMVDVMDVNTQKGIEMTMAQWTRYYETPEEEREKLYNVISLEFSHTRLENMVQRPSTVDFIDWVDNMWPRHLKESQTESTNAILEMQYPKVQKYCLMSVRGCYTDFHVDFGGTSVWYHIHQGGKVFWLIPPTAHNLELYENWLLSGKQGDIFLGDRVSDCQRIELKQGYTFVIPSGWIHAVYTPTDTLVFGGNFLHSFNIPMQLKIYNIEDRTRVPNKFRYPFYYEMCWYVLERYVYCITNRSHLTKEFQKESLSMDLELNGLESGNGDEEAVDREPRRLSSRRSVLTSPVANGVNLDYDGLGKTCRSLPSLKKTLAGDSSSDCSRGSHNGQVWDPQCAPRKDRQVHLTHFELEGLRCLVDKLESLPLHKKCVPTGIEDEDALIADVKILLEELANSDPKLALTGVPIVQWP
The arrangement: RapidFire MS histone peptide demethylation assay. As to conditions: for KDM2A RapidFire pIC50: inhibitor. How it is done: [formula] Scheme 1 A) General synthetic strategy for racemic synthesis of KDM2A inhibitors. Reagents and conditions: i) Zn powder (10 equiv), NH4Cl (15 equiv), 5:1 acetone/H2O or H2, Pd/C (10 % w/w), EtOAc; ii) ArCHO (1.3 equiv), MgSO4 (5 equiv), PhMe or ArCHO (1.3 equiv), pyrrolidine (0.1 equiv), 3 Å sieves, CH2Cl2; iii) KO^tBu (1.1 equiv), PhMe, 0 °C; iv) R^3COCl (2–5 equiv), pyridine (2–5 equiv), CH2Cl2; v) metal‐catalysed cross‐coupling. B) Key structure–activity relationships. IC50 values were determined by RapidFire MS and confirmed by AlphaScreen. All compounds are racemic. C) Catalytic enantioselective synthesis. Reagents and conditions: i) CsOH⋅H2O (2.0 equiv), catalyst 14/16 (10 mol %), PhMe, −30 °C. Catalyst 14: 89 %, d.r. 10:1, e.r. 88:12; catalyst 16: 84 %, d.r. 7:1, e.r. 17:83; ii) CH3COCl (2.0 equiv), pyridine (2.0 equiv), CH2Cl2; iii) H2, Pd/C (10 % w/w), 88 % (2 steps); iv) K2CO3 (5 equiv), Br(CH2)7Br (4 equiv), acetone, reflux, 38 %; v) K2CO3 (5 equiv) pyrrolidine (4 equiv), CH3CN, 65 %; vi) PhN(SO2CF3)2 (1.1 equiv), DIPEA (2.0 equiv), CH2Cl2, 0 °C, 85 %; vii) 7‐pyrrolidine‐hept‐1‐yne (1.5 equiv), PdCl2(PPh3)2 (5 mol %), CuI (5 mol %), HN(^iPr)2, 75 °C, 79 %; viii) H2, Pd/C (10 % w/w), MeOH, 74 %. DIPEA=(^iPr)2NEt. A base‐mediated 5‐endo‐trig cyclization of a C‐2‐substituted aromatic imine afforded the racemic indoline core with two adjacent stereocenters. Subsequent acylation of the indoline ring system conferred stability towards oxidation and provided a handle for modulating polarity. Finally, metal‐catalysed cross‐coupling of the aryl bromide provided access to a variety of linkers between the indoline core and pyrrolidine capping group. In total, 45 racemic compounds were synthesized, and IC50 values for inhibition of KDM2A were determined using two orthogonal enzyme activity assays: AlphaScreen25 and RapidFire MS26 (see Section S3.1 in the Supporting Information for complete inhibition data). Key structure–activity relationships are summarized below (Scheme 1 B, compounds 2–12).

The structures appear in SMILES notation.

Sequence of JARID1A (KDM5A) (P29375 whole entry): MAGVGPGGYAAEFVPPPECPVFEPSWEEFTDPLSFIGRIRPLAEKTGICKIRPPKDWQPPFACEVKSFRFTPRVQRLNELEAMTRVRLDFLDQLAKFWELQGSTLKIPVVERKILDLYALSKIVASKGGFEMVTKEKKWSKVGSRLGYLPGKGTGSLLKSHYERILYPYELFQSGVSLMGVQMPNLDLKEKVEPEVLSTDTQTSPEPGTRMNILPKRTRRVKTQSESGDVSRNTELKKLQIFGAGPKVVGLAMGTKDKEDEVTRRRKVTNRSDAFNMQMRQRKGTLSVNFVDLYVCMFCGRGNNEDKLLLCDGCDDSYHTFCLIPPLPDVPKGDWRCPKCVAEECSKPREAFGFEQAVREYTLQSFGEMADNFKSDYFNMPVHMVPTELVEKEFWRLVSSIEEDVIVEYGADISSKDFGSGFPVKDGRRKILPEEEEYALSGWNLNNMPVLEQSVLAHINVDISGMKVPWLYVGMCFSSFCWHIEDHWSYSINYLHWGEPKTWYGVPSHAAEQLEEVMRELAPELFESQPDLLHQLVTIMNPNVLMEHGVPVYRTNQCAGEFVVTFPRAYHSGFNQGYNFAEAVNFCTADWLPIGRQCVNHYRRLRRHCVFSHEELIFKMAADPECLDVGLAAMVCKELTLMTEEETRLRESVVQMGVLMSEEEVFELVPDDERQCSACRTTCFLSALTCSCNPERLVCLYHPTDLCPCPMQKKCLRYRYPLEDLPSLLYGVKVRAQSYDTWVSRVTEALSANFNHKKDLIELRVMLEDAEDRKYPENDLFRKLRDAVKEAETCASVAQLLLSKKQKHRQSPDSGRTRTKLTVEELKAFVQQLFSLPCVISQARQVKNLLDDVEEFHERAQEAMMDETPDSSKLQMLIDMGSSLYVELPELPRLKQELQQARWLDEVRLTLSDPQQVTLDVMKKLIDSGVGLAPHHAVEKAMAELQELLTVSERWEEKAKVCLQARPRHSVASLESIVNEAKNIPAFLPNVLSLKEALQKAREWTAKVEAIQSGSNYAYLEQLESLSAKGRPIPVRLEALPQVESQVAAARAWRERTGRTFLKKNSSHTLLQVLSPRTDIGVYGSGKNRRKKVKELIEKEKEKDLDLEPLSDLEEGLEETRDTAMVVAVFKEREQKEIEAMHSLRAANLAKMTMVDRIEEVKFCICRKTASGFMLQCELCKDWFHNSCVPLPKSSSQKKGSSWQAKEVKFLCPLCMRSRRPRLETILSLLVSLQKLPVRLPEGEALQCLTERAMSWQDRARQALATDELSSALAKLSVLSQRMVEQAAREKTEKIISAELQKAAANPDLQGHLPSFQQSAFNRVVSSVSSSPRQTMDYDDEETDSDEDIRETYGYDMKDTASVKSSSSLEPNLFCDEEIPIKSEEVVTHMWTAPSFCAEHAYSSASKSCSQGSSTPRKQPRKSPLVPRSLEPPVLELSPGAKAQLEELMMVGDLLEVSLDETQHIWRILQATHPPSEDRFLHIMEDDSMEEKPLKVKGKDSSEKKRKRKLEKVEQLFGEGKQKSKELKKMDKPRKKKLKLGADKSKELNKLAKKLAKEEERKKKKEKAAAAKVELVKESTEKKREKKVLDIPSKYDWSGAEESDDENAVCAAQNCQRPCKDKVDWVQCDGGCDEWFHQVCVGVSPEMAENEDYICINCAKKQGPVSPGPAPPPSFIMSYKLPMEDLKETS

As to `CC(=O)N1c2ccccc2[C@](C#N)(c2ccccc2)[C@H]1c1cncc(OCCCCCCCN2CCCC2)c1` (racemic) [compound 3, 3], the inhibition at 50 µM at JARID1A (KDM5A) is 24%. Moreover, the inhibition at 18.75 µM on JMJD2A (KDM4A) [1] is -5.4%.

Take `CC(=O)N1c2ccccc2[C@](C#N)(c2ccccc2)[C@H]1c1cncc(C#CCCCCCN2CCCC2)c1` (racemic) [compound 4, 4]: the inhibition at 50 µM against JARID1A (KDM5A) was 39%. The inhibition at 18.75 µM on JMJD2A (KDM4A) [1] stood at 10.2%.

For the compound `CC(=O)N1c2ccccc2[C@](C#N)(c2ccccc2)[C@H]1c1cncc(CCCCCCCN2CCCC2)c1` (racemic) [compound 6, 6], the inhibition at 50 µM at JARID1A (KDM5A) was 25.5%. On JMJD2A (KDM4A) [1], the inhibition at 18.75 µM is -1.1%.

Regarding `CC(=O)N1c2ccccc2[C@](C#N)(c2ccccc2)[C@H]1c1ccc(CCCCCCCN2CCCC2)o1` (racemic) [compound 7, 7], at JARID1A (KDM5A), the inhibition at 50 µM worked out at 47.5%. The inhibition at 18.75 µM on JMJD2A (KDM4A) [1] was 8.5%.

With `CC(=O)N1c2ccccc2[C@@](C#N)(c2ccccc2)[C@H]1c1cncc(OCCCCCCCN2CCCC2)c1` (racemic) [compound 145, (2RS,3SR)-1-Acetyl-3-phenyl-2-(5-((7-(pyrrolidin-1-yl)heptyl)oxy)pyridin-3-yl)indoline-3-carbonitrile], the IC50 at JMJD2A (KDM4A) [2] is greater than 20 µM; at JARID1A (KDM5A) (read-out: KDM5A pIC50 (converted)), greater than 50.1 µM; at KDM2A (read-out: KDM2A RapidFire pIC50 (converted)) it was 1.01 µM. The inhibition at 50 µM against JARID1A (KDM5A) was 36.7%. The inhibition at 18.75 µM at JMJD2A (KDM4A) [1] was -9.59%.

As for `CC(=O)N1c2ccccc2[C@](C#N)(c2ccccc2)[C@H]1c1cncc(OCCOCCOCCN2CCCC2)c1` (racemic) [compound 148, (2RS,3RS)-1-Acetyl-3-phenyl-2-(5-(2-(2-(2-(pyrrolidin-1-yl)ethoxy)ethoxy)ethoxy)pyridin-3-yl)indoline-3-carbonitrile], at JMJD2A (KDM4A) [2], the IC50 was greater than 20 µM. On JMJD2A (KDM4A) [1], the inhibition at 18.75 µM was -5.9%.

Consider `CC(=O)N1c2ccccc2[C@@](C#N)(c2ccccc2)[C@H]1c1cccc(/C=C/CCCCCN2CCCC2)c1` (relative stereo) [compound 126, 126], for which, on JMJD2A (KDM4A) [2], the “KDM4A pIC50” value is less than 4.7. Also, the “KDM2A RapidFire pIC50” value at KDM2A amounted to 5.983. Besides, the inhibition at 18.75 µM on JMJD2A (KDM4A) [1] was 27.8%.

Turning to `CC(=O)N1c2ccccc2[C@](C#N)(c2ccccc2)[C@H]1c1ccc(C#CCCCCCN2CCCC2)o1` (relative stereo) [compound 132, 132], the “KDM4A pIC50” value on JMJD2A (KDM4A) [2] was less than 4.7. The inhibition at 50 µM at JARID1A (KDM5A) came to 49.1%. Also, the “KDM5A pIC50” value at JARID1A (KDM5A) (inhibitor) is less than 4.3. In addition, at KDM2A, the “KDM2A RapidFire pIC50” value turned out to be 5.990. In addition, the inhibition at 18.75 µM at JMJD2A (KDM4A) [1] was found to be 18.3%.

`CC(=O)N1c2ccccc2[C@](C#N)(c2ccccc2)[C@H]1c1cncc(CCCCCCCN2CCCC2)c1` [(R,R)-6]: the inhibition at 50 µM against JARID1A (KDM5A) came to 40%. For the same compound, the inhibition at 18.75 µM at JMJD2A (KDM4A) [1] came out at 7.8%.

For `CC(=O)N1c2ccccc2C(C#N)(c2ccccc2)C1c1cc(CCCCCCCN2CCCC2)co1` (stereo not shown) [compound 8, 8], on JARID1A (KDM5A), the inhibition at 50 µM turned out to be 23%. The inhibition at 18.75 µM at JMJD2A (KDM4A) [1] came to 21.8%.

For the compound `CCOC(=O)C1(C#N)c2ccccc2N(C(C)=O)C1c1cncc(C=CCCCCCN2CCCC2)c1` (stereo not shown) [compound 124, 124], the inhibition at 50 µM at JARID1A (KDM5A) worked out at 20%. Also, on JMJD2A (KDM4A) [1], the inhibition at 18.75 µM was -12.7%.

`CC(=O)N1c2ccccc2C(C#N)(c2ccccc2)C1c1cncc(C#CCCCCCN2CCCC2)c1` (stereo not shown) [compound 130, 130]: the inhibition at 50 µM against JARID1A (KDM5A) was found to be 30.9%. Further, the inhibition at 18.75 µM on JMJD2A (KDM4A) [1] is -1.3%.
